Drawing on US20220213070A1, “COMPOUNDS INHIBITING TDG ACTIVITY” (EPITAS BIOSCIENCES (SHANGHAI) CO., LTD., priority 2019, published 2022), this text covers inhibition and IC50 for 15 compounds.

The inhibition is the relative decrease from the control value, in per cent. By IC50 is commonly meant the concentration that inhibits the measured activity by half.

The target of assay [1] is T1, TDG (Homo sapiens, UniProt Q13569). The experiment in a line: TDG inhibitory activity of compounds in cells (caC-cmv-firefly luciferase reporter, HEK 293T TDG KO cells transfected with pCDNA4-TDG). The assay is classed as cell-based. The conditions noted are these: read-out: Inhibition rate on TDG activity. The protocol: Experimental Determination of TDG Inhibitory Activity of Compounds in Cells
The operation steps of this example are as follows:
(1) Preparation of Methylation Reporter Plasmid:
(a) SAM with a stock solution concentration of 32 mM was diluted with ultrapure water to 1600 μM;
(b) The reaction system was prepared according to the following ratio: 30 μl ultrapure water, 5 μl 10×NEBuffer 2, 5 μl diluted SAM, 1 μg pCpGL-CMV-firefly plasmid, 1 μl SssI methylase (4 U/μl); 50 μl in total, the reaction was carried out at 37° C. for 2 hours;
(c) The mixture was heated at 65° C. for 20 minutes. Then 0.2% SDS was added, the reaction was carried out at 80° C. for 10 min; and then 1 μl Proteinase K was added, the reaction was carried out at 50° C. for 1 h;
(d) The methylated plasmid was recovered with Dr. GenTLE® sedimentation aid (TAKARA).
(2) Preparation of 5fC/5caC pCpGL-CMV-Firefly Reporter Plasmid
(a) The following 10× reaction system was prepared:
(b) The reaction system was prepared according to the following ratio:
(c) The reaction was carried out at 37° C. for one hour;
(d) 24 μg Tet1 protein was added for the second time and the reaction was continued for one hour;
(e) SDS was added to a final concentration of 0.5%, 80° C., 10 minutes, then 1 μl Proteinase K was added, 55° C. overnight.
(f) The treated caC-cmv-firefly plasmid was recovered with Dr. GenTLE® sedimentation aid (TAKARA) and was quantified.
(3) Using the Luciferase Activity Assay Method to Detect the Inhibitory Rate of Small Molecule Compounds on Intracellular TDG Enzyme Activity
In a 96-well plate, the reaction system and operation flow of each well were as follows:
(a) 1 ng caC-cmv-firefly, Ing pCpGL-CMV-Relina and 150 ng pCDNA4-TDG or 150 ng pCDNA4-myc plasmid, were diluted to 75 ul Opti-MEM, mixed well and allowed to stand still for 5 minutes;
(b) 2 ul transfection reagent (Hieff Trans™ Liposomal transfection Reagent (0.5 ul/well, YEAEEN, Cat #40802)) was diluted in 100 ul Opti-MEM, mixed well and allowed to stand still for 5 minutes;
(c) 75 ul of (a) and (b) were mixed respectively, and allowed to stand still at room temperature for 20 minutes;
(d) HEK 293T TDG KO cells were digested with trypsin, the cells were collected and counted, and the suspension cell concentration was adjusted to 4×10^5/ml;
(e) 50 ul of the mixture (c) was added to each well, and at the same time 100 ul of the diluted cell suspension was added to the same well, and they were mixed well.
(f) After the cells adhering to the wall, different concentrations of small molecule compounds to be tested were added to each well.
(g) Incubation was performed in a 37° C. CO2 incubator for 72 hours. The supernatant was removed and the cells were quickly freezed at −80° C.
(h) Before detecting the luciferase activity, the cells to be tested were removed from −80° C. and allowed to stand still at room temperature for 30 minutes. Following the instructions of Dual-Glo® Luciferase Reagent (PROMEGA), the firefly fluorescence value and Renilla fluorescence value of each well were detected.
(i) The firefly fluorescence value was divided with the Renilla fluorescence value of each well; 96-well plate Z′ and experimental window was calculated by the ratio of transfected caC-cmv-firefly, pCpGL-CMV-Relina, pCDNA4-TDG plasmid mixture plus DMSO experimental group to transfected caC-cmv-firefly, pCpGL-CMV-Relina, pCDNA4-myc plasmid mixture plus DMSO experimental group, and the relative enzyme activity inhibition rate of each compound was calculated.
According to the biological method described in this example, the selected compounds of the present invention were analyzed, and the results are shown in Table 2. Among them, “+” in Table 2 refers to the compound's TDG inhibitory activity at a concentration of 10 μM≤25%; “++” refers to the compound's TDG inhibitory activity at a concentration of 10 μM>25%.
In general terms: In a reporter assay the amount or activity of a reporter protein is the signal.

Assay [2] addresses T1, TDG. Briefly: Inhibition of TDG mismatch repair activity (fluorescent G·U double-stranded DNA probe T1-T2). The assay is classed as biochemical. The conditions noted are these: TDG 100 nM/L, preincubated with compound 37° C. 30 minutes; probe 30 nM; read-out: Inhibitory activity on TDG mismatch repair IC50. An excerpt:
14.1 Experimental Determination of Compound's Inhibitory Rate on TDG Mismatch Repair Activity
(1) A double-stranded DNA probe T1-T2 containing uracil bases was synthesized. The nucleotide sequence of the T1 chain was: 5′-FAM-TAAUGTGAATGGAGCTGAAAT-biotin-3′; The nucleotide sequence of the T2 chain was 5′-ATTTCAGCTCCATTCACGTTA-3′. Using PCR annealing program, the T1 strand and T2 strand were complementary to form a double-stranded DNA probe T1-T2.
(2) The reaction system and steps for each well of a 96-well plate were as follows: a. TDG (100 nM/L) was mixed with different concentrations of compounds, and the mixture was incubated at 37° C. for 30 minutes. The composition of the reaction buffer was: 20 mM HEPES pH7.5, 100 mM NaCl, 0.2 mM EDTA, 2.5 mM MgCl2; b. The double-stranded DNA probe T1-T2 was added to the mixture to obtain a final volume of 100 μL, with a concentration of 30 nM, and the mixture was incubated at 25° C. for 30 min; c. 1 μL of streptavidin magnetic beads were added to the reaction solution and fully bound the biotin-labeled DNA for 1 hour; d. NaOH was added to the reaction solution to a final concentration of 200 mM, and the mixture was incubated at room temperature for 30 minutes; e. Under the action of a magnetic stand the streptavidin magnetic beads were adsorbed to the tube wall, the supernatant was transferred to a new 96-well plate, and placed in a Tecan microplate reader for fluorescence measurement. The parameter settings were: excitation wavelength 485 nm; emission wavelength 520 nm. A linear curve between fluorescence intensity and TDG concentration was constructed, R^2=0.9968, and the linear range was 0-50 nM/L;
According to the biological method described in this example, the selected compounds of the present invention were analyzed, and the results are shown in Table 1. Among them, “++” in Table 1 refers to the inhibitory activity for TDG mismatch repair with IC50≤5 μM; “+” refers to the inhibitory activity for TDG mismatch repair with IC50>5 μM.

The subject of assay [3] is Lung cancer cell line Calu-1. The experiment in a line: Inhibition of the growth of Calu-1 cells (CellTiter-Glo, 72 hours). The assay is classed as cell-based. The conditions noted are these: Homo sapiens, 72 hours of culturing, read-out: Inhibitory activity on alu-1 cell growth IC50. The protocol: 14.2 Experimental Determination of Compound's Inhibitory Rate on the Growth of Calu-1 Cells
Lung cancer cell line Calu-1 was cultured in 90% McCoy's 5A medium (BI, 01-075-1ACS)+10% fetal bovine serum (Gibco, 10270106), placed in a CO2 incubator (37° C., 5% CO2, 95% air) for culturing. Calu-1 cells were digested with trypsin (Gibco, 12604-021) and seeded in a 384-well plate at a density of 500 cells per well. The medium was 50 μL and it was cultured overnight at 37° C. in an incubator. On the next day, different concentrations of test compounds were added, and the final concentration of DMSO was 0.1%. After 72 hours of culturing, the cells were taken out for test. The cell culture medium from the 384-well plate to be tested was removed, and fresh culture medium premixed with CTG was immediately added: the ratio of the culture medium to CellTiter-Glo® 2.0 reagent (Promega, G9243) was 2:1, 30 ul was added to each well. The plate was shaken at room temperature for 20 minutes, and then a multi-function plate reader (TECAN, Infinite 200 Pro) was used according to the reagent instructions to determine the cell survival.
According to the biological method described in this example, the selected compounds of the present invention were analyzed, and the results are shown in Table 1. Among them, “++” in Table 1 refers to the inhibitory activity on the growth of calu-1 cells with IC50≤5 μM; “+” refers to the inhibitory activity on the growth of calu-1 cells with IC50>5 μM.
(Cellular ATP, detected with luciferase, serves as a proxy for viable cell number.)

Bounds are passed on as bounds.

T1 sequence (Q13569 whole entry): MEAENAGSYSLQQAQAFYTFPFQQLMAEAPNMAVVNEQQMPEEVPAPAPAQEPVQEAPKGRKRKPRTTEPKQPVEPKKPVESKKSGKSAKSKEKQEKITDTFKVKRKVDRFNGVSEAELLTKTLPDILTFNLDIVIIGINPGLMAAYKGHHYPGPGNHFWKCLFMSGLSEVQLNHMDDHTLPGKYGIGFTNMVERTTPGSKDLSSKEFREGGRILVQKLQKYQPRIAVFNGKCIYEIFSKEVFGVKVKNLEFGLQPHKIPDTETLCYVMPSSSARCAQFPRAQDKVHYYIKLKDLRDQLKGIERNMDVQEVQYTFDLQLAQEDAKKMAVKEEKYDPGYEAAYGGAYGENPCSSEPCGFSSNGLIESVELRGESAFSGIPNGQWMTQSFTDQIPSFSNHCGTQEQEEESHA

`O=C(CCN1Cc2ccccc2C1)c1ccc2c(c1)OCCO2` [Compound 1, 1-(2,3-dihydrobenzo[b][1,4]dioxin-6-yl)-3-(isoindolin-2-yl)propan-1-one]: at TDG [1], the inhibition at 10 µM was above 25%. In addition, the 50% inhibitory concentration (IC50) (on TDG [2]; in assay [3]) was at most 5 µM each time.

With `O=C(CCN1Cc2ccc([N+](=O)[O-])cc2C1)c1ccc2c(c1)OCCO2` [Compound 2, 1-(2,3-dihydrobenzo[b][1,4]dioxin-6-yl)-3-(5-nitroisoindo1-2-yl)propan-1-one], the inhibition at 10 µM on TDG [1] is below 25%. The IC50 (at TDG [2]; in assay [3]) was at most 5 µM throughout.

Regarding `O=C(CCN1Cc2ccc(Br)cc2C1)c1ccc2c(c1)OCCO2` [Compound 3, 3-(5-bromoisoindolin-2-yl)-1-(2,3-dihydrobenzo[b][1,4]dioxin-6-yl)propan-1-one], at TDG [1], the inhibition at 10 µM was below 25%. The IC50 is at most 5 µM on TDG [2] and above 5 µM in assay [3].

`O=C(CCN1Cc2ccc(Cl)cc2C1)c1ccc2c(c1)OCCO2` [Compound 4, 3-(5-chloroisoindolin-2-yl)-1-(2,3-dihydrobenzo[b][1,4]dioxin-6-yl)propan-1-one]: the inhibition at 10 µM on TDG [1] is below 25%. In addition, the IC50 on TDG [2] was at most 5 µM; in assay [3], above 5 µM.

On to `COc1ccc2c(c1)CN(CCC(=O)c1ccc3c(c1)OCCO3)C2` [Compound 5, 1-(2,3-dihydrobenzo[b][1,4]dioxin-6-yl)-3-(5-methoxyisoindolin-2-yl)propan-1-one], for which the inhibition at 10 µM at TDG [1] was below 25%. The concentration for half-maximal inhibition (IC50) (on TDG [2]; in assay [3]) was at most 5 µM each time.

For `O=C(CCN1Cc2ccc(F)cc2C1)c1ccc2c(c1)OCCO2` [Compound 6, 1-(2,3-dihydrobenzo[b][1,4]dioxin-6-yl)-3-(5-fluoroiso-2-yl)propan-1-one], on TDG [1], the inhibition at 10 µM is below 25%. The figures for the IC50 (at TDG [2]; in assay [3]) were at most 5 µM and above 5 µM, respectively.

For `CC(=O)c1ccc2c(c1)CN(CCC(=O)c1ccc3c(c1)OCCO3)C2` [Compound 7, 3-(5-acetylisoindolin-2-yl)-1-(2,3-dihydrobenzo[b][1,4]dioxin-6-yl)propan-1-one], the inhibition at 10 µM at TDG [1] is below 25%. The figures for the IC50 (on TDG [2]; in assay [3]) were at most 5 µM and above 5 µM, respectively.

Consider `N#Cc1ccc2c(c1)CN(CCC(=O)c1ccc3c(c1)OCCO3)C2` [Compound 8], for which the inhibition at 10 µM at TDG [1] is below 25%. Moreover, the IC50 at TDG [2] is at most 5 µM; in assay [3] it was above 5 µM.

For the compound `Nc1ccc2c(c1)CN(CCC(=O)c1ccc3c(c1)OCCO3)C2` [Compound 9, 3-(5-aminoisoindolin-2-yl)-1-(2,3-dihydrobenzo[b][1,4]dioxin-6-yl)propan-1-one], the inhibition at 10 µM on TDG [1] was above 25%. The IC50 (at TDG [2]; in assay [3]) was at most 5 µM each time.

As to `OC(CCN1Cc2ccccc2C1)c1ccc2c(c1)OCCO2` (centres unmarked) [Compound 10, 1-(2,3-dihydrobenzo[b][1,4]dioxin-6-yl)-3-(isoindolin-2-yl)propan-1-ol], the inhibition at 10 µM on TDG [1] was below 25%. For the same compound, the IC50 (at TDG [2]; in assay [3]) was above 5 µM in each case.

Consider `O=C(CCN1CCc2ccccc21)c1ccc2c(c1)OCCO2` [Compound 11, 1-(2,3-dihydrobenzo[b][1,4]dioxin-6-yl)-3-(indoline-1-yl)propan-1-one], for which, at TDG [1], the inhibition at 10 µM is below 25%. Besides, the IC50 (at TDG [2]; in assay [3]) was above 5 µM each time.

In the case of `O=C(CCN1C(=O)c2ccccc2C1=O)c1ccc2c(c1)OCCO2` [Compound 12, 2-(3-(2,3-dihydrobenzo[b][1,4]dioxin-6-yl)-3-oxopropyl)isoindole-1,3-dione], the inhibition at 10 µM at TDG [1] was below 25%. The IC50 (at TDG [2]; in assay [3]) was above 5 µM each time.

As to `O=C(CCN1CCc2ccccc2C1)c1ccc2c(c1)OCCO2` [Compound 13, 1-(2,3-dihydrobenzo[b][1,4]dioxin-6-yl)-3-(3,4-dihydroisoquinoline-2(1H)-yl)propan-1-one], the inhibition at 10 µM on TDG [1] was below 25%. The IC50 (on TDG [2]; in assay [3]) was at most 5 µM in each case.

Consider `O=C(CCN1CCCc2ccccc21)c1ccc2c(c1)OCCO2` [Compound 14, 1-(2,3-dihydrobenzo[b][1,4]dioxin-6-yl)-3-(3,4-dihydrouinoline-1(2H)-yl)propan-1-one], for which the inhibition at 10 µM at TDG [1] is below 25%. Besides, the IC50 (on TDG [2]; in assay [3]) was above 5 µM each time.

As for `Cc1ccc(C2CCN(CCC(=O)c3ccc4c(c3)OCCO4)C2)cc1` (centres unmarked) [Compound 48, 1-(2,3-dihydrobenzo[b][1,4]dioxin-6-yl)-3-(3-(p-tolyl)pyrrolidin-1-yl)propan-1-one], the IC50 (at TDG [2]; in assay [3]) was at most 5 µM in each case.
